This experiment has as its system P. aeruginosa 26. Briefly: in vitro Antimicrobial Activity (two-fold agar-plate dilution method). Format: cell-based. Conditions: Pseudomonas aeruginosa, heart infusion agar, 10^6 viable cells per ml, 37° C. for 20 hours, read-out: minimal inhibitory concentration (MIC). The procedure: in vitro Antimicrobial Activity was determined by the two-fold agar-plate dilution method as described blow.
One loopful of an overnight culture of a test strain in Trypticase-soy broth (10^6 viable cells per ml) was streaked on heart infusion agar (HI-agar) containing graded concentrations of the test compound, and the minimal inhibitory concentration (MIC) was expressed in terms of μg/ml after incubation at 37° C. for 20 hours.
The compound of Example 2.

In brackets after ≈: the same amount, converted by molar mass.

As for `C[C@@H](O)[C@H]1C(=O)N2C(C(=O)O)=C(S[C@@H]3CN[C@H](CN4CCNCC4)C3)[C@H](C)[C@H]12` [Example 2, (4R,5S,6S)-6-[(1R)-1-hydroxyethyl]-4-methyl-7-oxo-3-[(2S,4S)-2-(piperazin-1-yl)methylpyrrolidin-4-yl]thio-1-azabicyclo[3.2.0]hept-2-ene-2-carboxylic acid], the MIC was found to be 0.39 µg/mL (≈ 0.95 µM).

Source of the values: patent US5202437A, “3-pyrrolidinylthio-1-azabicyclo(3.2.0)-hept-2-ene-2-carboxylic acid compounds” (Fujisawa Pharmaceutical Company, Ltd., priority 1988, dated 1993).
